In US10865222B2, “Neisseria gonorrhoeae therapeutic based on CMP-nonulosonate sugars” (priority 2014, dated 2020):

How the values were obtained:
[1] = test system: Ng 398078 (expresses P^K-like structure on HepI); experiment: Complement resistance of Ng 398078 (serum bactericidal assay); format: cell-based, N. gonorrhoeae; settings: 10% normal human serum
Description: CMP-Leg5Ac7Ac and CMP-Neu5Ac9Az also counteracted CMP-Neu5Ac-mediated serum resistance of a P^K LOS expressing isolate called 398078 (Table 4).
Serum bactericidal assays were performed as described previously (11). Bacteria harvested from an overnight culture on chocolate agar plates were grown in liquid media containing the specified concentration of CMP-nonulosonate as specified for each experiment. Approximately 2000 CFU of F62 ΔIgtD were incubated with NHS (concentration specified for each experiment). The final reaction volumes were maintained at 150 μl. Aliquots of 25 μl of reaction mixtures were plated onto chocolate agar in duplicate at the beginning of the assay (t0) and again after incubation at 37° C. for 30 min (t30). Survival was calculated as the number of viable colonies at t30 relative to t0.

[2] = test system: Ng F62 (wildtype [WT]); experiment: BALB/c vaginal colonization model, Ng F62; format: in vivo, N. gonorrhoeae; settings: 10 μg intravaginally daily
Description: FIG. 13. […] A and B. Efficacy of CMP-Leg5Ac7Ac against Ng F62. 17β-estradiol treated BALB/c mice were infected with i) Ng F62 (wildtype [WT]) and treated (CMP-Leg5Ac7Ac, 10 μg intravaginally, daily), ii) Ng F62 WT→saline (No treatment) or iii) Ng F62 Δlst (cannot sialylate LOS), untreated. Ng load in the vagina was enumerated daily. A. Time to clearance. B. Area under the curve (AUC; each point represents the AUC of CFU vs. time for each mouse). Horizontal bar, geometric mean. C and D. Efficacy of CMP-Leg5Ac7Ac vs ceftriaxone-resistant isolate H041. Time to clearance (C) and AUC analysis (D) are described above.
The efficacy of CMP-Leg5Ac7Ac against Ng was tested in the BALB/c vaginal colonization model (FIG. 13) (51). Three groups of 17β-estradiol treated BALB/c mice (10 mice/group) were infected as follows: i) WT F62→CMP-Leg5Ac7Ac (10 μg intravaginally daily), ii) WT F62→saline control (‘untreated’) and iii) F62 List (cannot sialylate LOS)→untreated.

[3] = target: T1, Lst sialyltransferase from N. gonorrhoeae F62 (Neisseria gonorrhoeae, UniProt P72074); experiment: Lst sialyltransferase acceptor specificity with CMP-Neu5Ac and CMP-Leg5Ac7Ac donors (TLC); format: biochemical; settings: for removal of the nonulosonate from modified LacNAc acceptors by Lst over time: 2 h versus 20 h
T1 construct: made in house; host or cells: Escherichia coli
Description: (§1) FIG. 11. N. gonorrhoeae Lst sialyltransferase efficiently legylates a LacNAc acceptor. The acceptor specificity of N. gonorrhoeae Lst sialyltransferase was assessed using CMP-Neu5Ac and CMP-Leg5Ac7Ac donors. The various acceptors tested were LacNAc or Galβ-1,4-GlcNAc-β-FCHASE, Lacto-N-biose or Galβ-1,3-GlcNAc-β-FCHASE, TAg or Galβ-1,3-GalNAc-α-FCHASE, and Pk or Galα-1,4-Galβ-1,4-Glc-β-FCHASE. Lst enzyme preparations (2.5 μg per assay) were incubated with 2.5 pmoles of each acceptor with either 3 mM CMP-Neu5Ac or 3 mM CMP-Leg5Ac7Ac for either 2 or 20 h as indicated. Reactions were then examined by TLC. Arrows indicate the general vicinity of FCHASE acceptors (top spots), whereas arrowheads indicate the general vicinity of modified FCHASE acceptors (bottom spots—enzyme product).
as §1, with “The” for “FIG. 11. N. gonorrhoeae Lst sialyltransferase efficiently legylates a LacNAc acceptor. The”, “product) (FIG. 11).” for “product).”
Lst sialyltransferase from N. gonorrhoeae F62 was recombinantly produced in Escherichia coli. Total membranes were isolated by ultracentrifugation at 100,000×g, resuspended in 0.2% Triton X-100, 50 mM Tris pH 7.5, 100 mM NaCl and incubated for 2 h at 4° C. […] N. gonorrhoeae Lst enzymatic assays were performed using 2.5 pmoles of 4 different FCHASE acceptors; LacNAc or Galβ-1,4-GlcNAc-β-FCHASE, Lacto-N-biose or Galβ-1,3-GlcNAc-β-FCHASE, TAg or Galβ-1,3-GalNAc-α-FCHASE, Pk or Galα-1,4-Galβ-1,4-Glc-β-FCHASE. CMP-Neu5Ac donor assays contained 50 mM Tris pH 7.5, whereas CMP-Leg5Ac7Ac donor assays contained 50 mM MES pH 6. All reactions contained 10 mM MnCl2, 3 mM CMP-sugar donor and 2.5 μg Lst enzyme. Reactions were incubated at 30° C. for either 2 h or 20 h as indicated. Upon completion of the reactions, stop solution was added (final concentration of 0.5% SDS, 5 mM EDTA, 25% acetonitrile) and an aliquot was run on TLC using EtOAc:MeOH:H2O:HOAc 4:2:1:0.1 as the mobile phase.

[4] = format: physicochemical
Description: Importantly, Neu5Ac9Az/Neu5Ac9Ac and Leg5Ac7Ac differ from Neu5Ac at carbon 9 and carbons 7 and 9, respectively. As well, Neu5Gc8Me differs from Neu5Gc at carbon 8. As such, carbons 7, 8 and 9 within the exocyclic moiety of nonulosonate sugars appear to play a critical role in the avoidance of serum mediated killing by N. gonorrhoeae, as evidenced by the enhanced serum-mediated killing with CMP-Neu5Ac9Az, CMP-Neu5Ac9Ac, CMP-Leg5Ac7Ac and CMP-Neu5Gc8Me, that was not observed with either CMP-Neu5Ac or CMP-Neu5Gc only feeding controls.

[5] = CMP-NulO 20 μg/ml added to media 15 min after CMP-Neu5Ac 20 μg/ml

T1 sequence (P72074 whole entry): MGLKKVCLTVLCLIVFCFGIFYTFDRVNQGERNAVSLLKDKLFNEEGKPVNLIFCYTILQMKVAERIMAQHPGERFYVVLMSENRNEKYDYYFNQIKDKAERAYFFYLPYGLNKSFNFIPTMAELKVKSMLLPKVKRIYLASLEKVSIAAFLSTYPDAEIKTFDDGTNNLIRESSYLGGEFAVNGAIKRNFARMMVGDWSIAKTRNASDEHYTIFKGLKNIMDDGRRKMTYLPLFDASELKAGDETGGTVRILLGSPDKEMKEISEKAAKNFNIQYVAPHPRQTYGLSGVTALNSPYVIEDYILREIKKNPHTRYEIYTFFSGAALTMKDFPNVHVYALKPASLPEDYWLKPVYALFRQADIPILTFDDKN

Compound	% survival [mean (range)] [1, 5]	% survival [mean (range)] ([1]; CMP-NulO alone at 20 μg/ml)	Ng infection (time to clearance, AUC of CFU vs. time) ([2]; 17β-estradiol treated BALB/c mice, vs saline)	sensitivity to human complement of bacteria recovered directly from treated mice ([2]; BALB/c mice, not shown)	product conversion of LacNAc acceptor ([3]; 3 mM CMP-sugar donor, 2.5 μg Lst)	removal of the nonulosonate from modified LacNAc acceptors by Lst over time [3]	stability of the preparation [4]	utilization of Lacto-N-biose, TAg and Pk acceptors ([3]; 3 mM CMP-sugar donor, 2 or 20 h)
5,7-diacetamido-3,5,7,9-tetradeoxy-D-glycero-D-galacto-nonulosonic acid [CMP-Leg5Ac7Ac]	0 (0) %	0 (0) %	significantly attenuated Ng infection	became sensitive to human complement	~100%	this was not observed		
CC(=O)N[C@H]1[C@H]([C@H](O)[C@H](O)COC(C)=O)OC(OP(=O)(O)OC[C@H]2O[C@@H](n3ccc(N)nc3=O)[C@H](O)[C@@H]2O)(C(=O)O)C[C@@H]1O (stereo partly drawn) [CMP-Neu5Ac9Ac, CMP-5-acetamido-9-O-acetyl-3,5-dideoxy-D-glycero-D-galacto-nonulosonic acid]							spontaneous breakdown of the 9OAc group	
CC(=O)N[C@H]1[C@H]([C@H](O)[C@H](O)CN=[N+]=[N-])OC(OP(=O)(O)OC[C@H]2O[C@@H](n3ccc(N)nc3=O)[C@H](O)[C@@H]2O)(C(=O)O)C[C@@H]1O (stereo partly drawn) [CMP-Neu5Ac9Az, CMP-5-acetamido-9-azido-3,5,9-trideoxy-D-glycero-D-galacto-nonulosonic acid]	7.5 (5.2) %	7.1 (2.3) %						
CC(=O)NC1C(O)CC(OP(=O)(O)OCC2OC(n3ccc(N)nc3=O)C(O)C2O)(C(=O)O)OC1C(O)C(O)CO [CMP-Neu5Ac, CMP-5-acetamido-3,5-dideoxy-D-glycero-D-galacto-nonulosonic acid, reference compound]		57.5 (1.6) %				can remove Neu5Ac from modified LacNAc acceptors over time		all but TAg could be efficiently utilized
